Experimental data published in PubChem BioAssay (NCI).
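Cultured in 96-well plates, cells were exposed to test compound for 48 hours across five concentrations. At the TGI there is no net growth.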

Legend:
Experiment in all cases: NCI-60 cell line screen, 48 h
786-0 renal = system: 786-0 renal
NCI-H23 lung = system: NCI-H23 lung
NCI-H226 lung = system: NCI-H226 lung
HCT-116 colon = system: HCT-116 colon
SK-MEL-2 melanoma = system: SK-MEL-2 melanoma
SNB-78 CNS = system: SNB-78 CNS
NCI-H522 lung = system: NCI-H522 lung
K-562 leukemia = system: K-562 leukemia
MALME-3M melanoma = system: MALME-3M melanoma
CCRF-CEM leukemia = system: CCRF-CEM leukemia
KM20L2 colon = system: KM20L2 colon
SN12C renal = system: SN12C renal
CAKI-1 renal = system: CAKI-1 renal
A549 NSCLC = system: A549 NSCLC
OVCAR-5 ovarian = system: OVCAR-5 ovarian
LXFL 529 NSCLC = system: LXFL 529 NSCLC
LOX IMVI melanoma = system: LOX IMVI melanoma
NCI-H460 lung = system: NCI-H460 lung
XF 498 CNS = system: XF 498 CNS
HCT-15 colon = system: HCT-15 colon
OVCAR-8 ovarian = system: OVCAR-8 ovarian
A498 renal = system: A498 renal
COLO 205 colon = system: COLO 205 colon
SK-MEL-28 melanoma = system: SK-MEL-28 melanoma
HL-60(TB) leukemia = system: HL-60(TB) leukemia
SF-295 CNS = system: SF-295 CNS
SR leukemia = system: SR leukemia
SK-OV-3 ovarian = system: SK-OV-3 ovarian
SNB-75 CNS = system: SNB-75 CNS
U251 CNS = system: U251 CNS
RXF 393 renal = system: RXF 393 renal
MOLT-4 leukemia = system: MOLT-4 leukemia
ACHN renal = system: ACHN renal
DMS 114 small cell lung = system: DMS 114 small cell lung
OVCAR-4 ovarian = system: OVCAR-4 ovarian
OVCAR-3 ovarian = system: OVCAR-3 ovarian
M19-MEL melanoma = system: M19-MEL melanoma
SNB-19 CNS = system: SNB-19 CNS
HCC-2998 colon = system: HCC-2998 colon
SW-620 colon = system: SW-620 colon
HOP-92 NSCLC = system: HOP-92 NSCLC
RPMI-8226 leukemia = system: RPMI-8226 leukemia
DLD-1 colon = system: DLD-1 colon
HOP-62 NSCLC = system: HOP-62 NSCLC
M14 melanoma = system: M14 melanoma
SF-539 CNS = system: SF-539 CNS
KM12 colon = system: KM12 colon
DMS 273 small cell lung = system: DMS 273 small cell lung
UO-31 renal = system: UO-31 renal
HT29 colon = system: HT29 colon
EKVX NSCLC = system: EKVX NSCLC
IGROV1 ovarian = system: IGROV1 ovarian
SF-268 CNS = system: SF-268 CNS
UACC-257 melanoma = system: UACC-257 melanoma
HOP-18 NSCLC = system: HOP-18 NSCLC
MDA-MB-231 breast = system: MDA-MB-231 breast
MDA-MB-435 = system: MDA-MB-435
DU-145 prostate = system: DU-145 prostate
HS 578T breast = system: HS 578T breast
MDA-N = system: MDA-N
NCI/ADR-RES ovarian = system: NCI/ADR-RES ovarian
BT-549 breast = system: BT-549 breast
UACC-62 melanoma = system: UACC-62 melanoma
T-47D breast = system: T-47D breast
TK-10 renal = system: TK-10 renal
PC-3 prostate = system: PC-3 prostate
MCF7 breast = system: MCF7 breast
SK-MEL-5 melanoma = system: SK-MEL-5 melanoma

`COc1cc([C@@H]2OCC3C(c4ccc5c(c4)OCO5)OCC32)cc(OC)c1OC` (some centres undefined) gave a TGI (786-0 renal) greater than 100 µM, a TGI (NCI-H23 lung) greater than 100 µM and a TGI (NCI-H226 lung) greater than 100 µM. For the same compound, the TGI (HCT-116 colon) was greater than 100 µM, the TGI (SK-MEL-2 melanoma) was greater than 100 µM and the TGI (SNB-78 CNS) was greater than 100 µM. It also gave a TGI (NCI-H522 lung) greater than 100 µM, a TGI (K-562 leukemia) greater than 100 µM and a TGI (MALME-3M melanoma) greater than 100 µM. For the same compound, the TGI (CCRF-CEM leukemia) was greater than 100 µM, the TGI (KM20L2 colon) was greater than 100 µM and the TGI (SN12C renal) was greater than 100 µM. The TGI (CAKI-1 renal) was greater than 100 µM, the TGI (A549 NSCLC) was greater than 100 µM and the TGI (OVCAR-5 ovarian) was greater than 100 µM. It also gave a TGI (LXFL 529 NSCLC) greater than 100 µM, a TGI (LOX IMVI melanoma) greater than 100 µM and a TGI (NCI-H460 lung) greater than 100 µM. The TGI (XF 498 CNS) was greater than 100 µM, the TGI (HCT-15 colon) was greater than 100 µM and the TGI (OVCAR-8 ovarian) was greater than 100 µM. For the same compound, the TGI (A498 renal) was greater than 100 µM, the TGI (COLO 205 colon) was greater than 100 µM and the TGI (SK-MEL-28 melanoma) was greater than 100 µM. The TGI (HL-60(TB) leukemia) was greater than 100 µM, the TGI (SF-295 CNS) was greater than 100 µM and the TGI (SR leukemia) was greater than 100 µM. It also gave a TGI (SK-OV-3 ovarian) greater than 100 µM, a TGI (SNB-75 CNS) greater than 100 µM and a TGI (U251 CNS) greater than 100 µM. For the same compound, the TGI (RXF 393 renal) was greater than 100 µM, the TGI (MOLT-4 leukemia) was greater than 100 µM and the TGI (ACHN renal) was greater than 100 µM. For the same compound, the TGI (DMS 114 small cell lung) was greater than 100 µM, the TGI (OVCAR-4 ovarian) was greater than 100 µM and the TGI (OVCAR-3 ovarian) was greater than 100 µM. The TGI (M19-MEL melanoma) was greater than 100 µM, the TGI (SNB-19 CNS) was greater than 100 µM and the TGI (HCC-2998 colon) was greater than 100 µM. The TGI (SW-620 colon) was greater than 100 µM, the TGI (HOP-92 NSCLC) was 60.9 µM and the TGI (RPMI-8226 leukemia) was greater than 100 µM. It also gave a TGI (DLD-1 colon) greater than 100 µM, a TGI (HOP-62 NSCLC) greater than 100 µM and a TGI (M14 melanoma) greater than 100 µM. For the same compound, the TGI (SF-539 CNS) was greater than 100 µM, the TGI (KM12 colon) was greater than 100 µM and the TGI (DMS 273 small cell lung) was greater than 100 µM. The TGI (UO-31 renal) was greater than 100 µM, the TGI (HT29 colon) was greater than 100 µM and the TGI (EKVX NSCLC) was greater than 100 µM. The TGI (IGROV1 ovarian) was greater than 100 µM and the TGI (SF-268 CNS) was greater than 100 µM.

For `COc1ccc(C(=O)C(C(=O)CCC(=O)Nc2ccc(C)c(C)c2)c2ccc(OC)cc2)cc1` (centres undefined), the TGI (NCI-H226 lung) was greater than 100 µM, the TGI (HCT-116 colon) was greater than 100 µM and the TGI (SK-MEL-2 melanoma) was greater than 100 µM. It also gave a TGI (MALME-3M melanoma) greater than 100 µM, a TGI (KM20L2 colon) greater than 100 µM and a TGI (SN12C renal) greater than 100 µM. For the same compound, the TGI (CAKI-1 renal) was greater than 100 µM, the TGI (OVCAR-5 ovarian) was greater than 100 µM and the TGI (LXFL 529 NSCLC) was greater than 100 µM. It also gave a TGI (LOX IMVI melanoma) greater than 100 µM, a TGI (NCI-H460 lung) greater than 100 µM and a TGI (HCT-15 colon) greater than 100 µM. For the same compound, the TGI (OVCAR-8 ovarian) was greater than 100 µM, the TGI (UACC-257 melanoma) was greater than 100 µM and the TGI (COLO 205 colon) was greater than 100 µM. The TGI (HL-60(TB) leukemia) was greater than 100 µM, the TGI (SF-295 CNS) was greater than 100 µM and the TGI (SR leukemia) was greater than 100 µM. It also gave a TGI (HOP-18 NSCLC) greater than 100 µM, a TGI (DMS 114 small cell lung) greater than 100 µM and a TGI (OVCAR-4 ovarian) greater than 100 µM. It also gave a TGI (OVCAR-3 ovarian) greater than 100 µM, a TGI (M19-MEL melanoma) greater than 100 µM and a TGI (HCC-2998 colon) greater than 100 µM. The TGI (SW-620 colon) was greater than 100 µM, the TGI (HOP-92 NSCLC) was greater than 100 µM and the TGI (HOP-62 NSCLC) was greater than 100 µM. The TGI (M14 melanoma) was greater than 100 µM, the TGI (KM12 colon) was greater than 100 µM and the TGI (DMS 273 small cell lung) was greater than 100 µM. For the same compound, the TGI (UO-31 renal) was greater than 100 µM and the TGI (HT29 colon) was greater than 100 µM.

With `c1ccc2cc(-c3cc(-c4cc(-c5ccc6ccccc6c5)on4)no3)ccc2c1` the TGI (786-0 renal) was greater than 100 µM, the TGI (NCI-H23 lung) was greater than 100 µM and the TGI (NCI-H226 lung) was greater than 100 µM. It also gave a TGI (HCT-116 colon) greater than 100 µM, a TGI (SK-MEL-2 melanoma) greater than 100 µM and a TGI (NCI-H522 lung) greater than 100 µM. For the same compound, the TGI (K-562 leukemia) was greater than 100 µM, the TGI (MALME-3M melanoma) was greater than 100 µM and the TGI (CCRF-CEM leukemia) was greater than 100 µM. For the same compound, the TGI (MDA-MB-231 breast) was greater than 100 µM, the TGI (SN12C renal) was greater than 100 µM and the TGI (CAKI-1 renal) was greater than 100 µM. For the same compound, the TGI (MDA-MB-435) was greater than 100 µM, the TGI (A549 NSCLC) was greater than 100 µM and the TGI (OVCAR-5 ovarian) was greater than 100 µM. It also gave a TGI (LOX IMVI melanoma) greater than 100 µM, a TGI (NCI-H460 lung) greater than 100 µM and a TGI (HCT-15 colon) greater than 100 µM. The TGI (OVCAR-8 ovarian) was greater than 100 µM, the TGI (UACC-257 melanoma) was greater than 100 µM and the TGI (DU-145 prostate) was greater than 100 µM. The TGI (HS 578T breast) was greater than 100 µM, the TGI (A498 renal) was greater than 100 µM and the TGI (COLO 205 colon) was greater than 100 µM. It also gave a TGI (MDA-N) greater than 100 µM, a TGI (SK-MEL-28 melanoma) greater than 100 µM and a TGI (HL-60(TB) leukemia) greater than 100 µM. It also gave a TGI (SF-295 CNS) greater than 100 µM, a TGI (SR leukemia) greater than 100 µM and a TGI (NCI/ADR-RES ovarian) greater than 100 µM. For the same compound, the TGI (SK-OV-3 ovarian) was greater than 100 µM, the TGI (BT-549 breast) was greater than 100 µM and the TGI (SNB-75 CNS) was greater than 100 µM. For the same compound, the TGI (U251 CNS) was greater than 100 µM, the TGI (RXF 393 renal) was greater than 100 µM and the TGI (MOLT-4 leukemia) was greater than 100 µM. The TGI (ACHN renal) was greater than 100 µM, the TGI (OVCAR-4 ovarian) was greater than 100 µM and the TGI (OVCAR-3 ovarian) was greater than 100 µM. The TGI (SNB-19 CNS) was greater than 100 µM, the TGI (HCC-2998 colon) was greater than 100 µM and the TGI (SW-620 colon) was greater than 100 µM. It also gave a TGI (UACC-62 melanoma) greater than 100 µM, a TGI (T-47D breast) greater than 100 µM and a TGI (HOP-92 NSCLC) greater than 100 µM. For the same compound, the TGI (RPMI-8226 leukemia) was greater than 100 µM, the TGI (HOP-62 NSCLC) was greater than 100 µM and the TGI (M14 melanoma) was greater than 100 µM. It also gave a TGI (TK-10 renal) greater than 100 µM, a TGI (PC-3 prostate) greater than 100 µM and a TGI (SF-539 CNS) greater than 100 µM. For the same compound, the TGI (KM12 colon) was greater than 100 µM, the TGI (UO-31 renal) was greater than 100 µM and the TGI (HT29 colon) was greater than 100 µM. It also gave a TGI (MCF7 breast) greater than 100 µM, a TGI (SK-MEL-5 melanoma) greater than 100 µM and a TGI (EKVX NSCLC) greater than 100 µM. It also gave a TGI (IGROV1 ovarian) greater than 100 µM and a TGI (SF-268 CNS) greater than 100 µM.
